Experimental data published in US20260325654A1, “METHODS AND COMPOSITIONS FOR TARGETED PROTEIN DEGRADATION” (Ranok Therapeutics (Hangzhou) Co. Ltd., priority 2023, published 2026).
pIC50: −log10 of the molar value.

Tests used:
ASPC-1 = assay: CellTiter-Glo Reagent cancer cell line proliferation assay, ASPC-1; type: cell-based; conditions: Homo sapiens, ASPC1; ASPC-1, KRAS(G12D) homozygous, 24 hr
Text: (§1) The following cancer cell lines were employed: • AsPC-1 human pancreatic adenocarcinoma, homozygous KRAS(G12D), (ATCC, #CRL-1682); A-427 human lung carcinoma, heterozygous KRAS(G12D), (ATCC, #HTB-53); AGS human gastric adenocarcinoma, heterozygous KRAS(G12D), (ATCC, #CRL-1739); GP2D human colon adenocarcinoma, heterozygous KRAS(G12D), (Sigma Aldrich, 95090714); SW1990 human pancreatic adenocarcinoma, homozygous KRAS(G12D), (ATCC, #CRL2172); LU65A human lung giant cell carcinoma, heterozygous KRAS(G12C), (JCRB Cell Bank, #JCRB0054); NCIH727 human lung carcinoid, heterozygous KRAS(G12V), (ATCC, #CRL-5815); MKN1 human gastric adenosquamous carcinoma KRAS (wt), (JCRB Cell Bank, #JCRB0252). Cell lines were cultured according to ATCC, JCRB and Sigma Aldrich recommendations.
(§2) Cells were plated in 96-well tissue culture plates at 4,000 cells/well and incubated at 37° C./5% CO2 for 24 hr in 100 μl of media. 3-fold serial dilutions of each test compound were prepared ranging from 20 μM to 1.02 nM. Cells were then treated with test compounds at various concentrations with a final concentration of 0.5% DMSO/well, and then incubated at 37° C./5% CO2 for 24 hr. 100 μl of CellTiter-Glo® Reagent (Promega Corporation, Madison, WI) was added to each well and processed according manufacturer's protocol. Results were analyzed and IC50-values were calculated in GraphPad 7 software.

GP2D = assay: CellTiter-Glo Reagent cancer cell line proliferation assay, GP2D; type: cell-based; conditions: Homo sapiens, KRAS(G12D) heterozygous, 24 hr
Outline: (§3)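 Cells were seeded at 4,000 per well, grown 24 hr at 37° C./5% CO2, then exposed 24 hr to 3-fold dilutions from 20 μM to 1.02 nM (0.5% DMSO final). Viability was read with CellTiter-Glo luminescence, and IC50 values were calculated.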

A427 = assay: CellTiter-Glo Reagent cancer cell line proliferation assay, A427; type: cell-based; conditions: Homo sapiens, A-427; A427, KRAS(G12D) heterozygous, 24 hr
Text: as §1, §2

SW1990 = assay: CellTiter-Glo Reagent cancer cell line proliferation assay, SW1990; type: cell-based; conditions: Homo sapiens; SW1990, KRAS(G12D) homozygous, 24 hr
Text: as §1, §2

AGS = assay: CellTiter-Glo Reagent cancer cell line proliferation assay, AGS; type: cell-based, human; conditions: Homo sapiens, 24 h, KRAS(G12D) heterozygous
Outline: as §3

KRAS(G12D) [1] = target: T1, KRAS(G12D) (Homo sapiens, UniProt P01116, G12D); assay: cell-based; type: cell-based; set-up: Cell lines SW1990 and GP2D that express KRAS(G12D); host or cells: SW1990; conditions: for Dmax: SW1990, read-out: WB data SW1990 DMax; for DC50: read-out: WB data SW1990 DC50, SW1990, KRAS degradation, 24 hr
Protocol: Cell lines were cultured according to ATCC, JCRB and Sigma Aldrich recommendations.
(§4) Cells were then washed with cold PBS, aspirated and cold RIPA buffer containing a protease/phosphatase inhibitor cocktail was added to lyse cells. After centrifugation, the total protein concentrations of cell lysates were determined using the BCA protein assay. Samples were normalized for equivalent protein concentrations, 5× SDS-PAGE loading buffer added and denatured at 100° C. for 10 min. 20 μl of each sample/well was loaded on a SDS-PAGE gel and electrophoresed for 20 min at 80 V, then 120 V for 1.5 hr. Gels were then electroblotted to nitrocellulose membranes using a wet-transfer method at 250 mA for 2.5 hr. Membranes were incubated with blocking buffer for 1 hr and washed 3 times with TBST for 5 min. Membranes were then incubated with anti-KRAS (Sigma-Aldrich, #SAB1404011) and anti-β-Actin monoclonal antibodies (Cell Signaling Technology, #3700) diluted in blocking buffer at 4° C. overnight per the manufacturer's recommendations. After washing 3 times, blots were incubated with appropriately labeled secondary antibodies for 1 hr at room temperature and washed again. Fluorescence imaging and quantitation was performed using a LI-COR Odyssey. Results was analyzed using GraphPad Prism 7 software. Compound concentrations that induced KRAS degradation (DC50 and DCmax) were calculated using GraphPad Prism 7 software.
Target sequence in this assay (P01116 1-188 isoform P01116-2 G12D): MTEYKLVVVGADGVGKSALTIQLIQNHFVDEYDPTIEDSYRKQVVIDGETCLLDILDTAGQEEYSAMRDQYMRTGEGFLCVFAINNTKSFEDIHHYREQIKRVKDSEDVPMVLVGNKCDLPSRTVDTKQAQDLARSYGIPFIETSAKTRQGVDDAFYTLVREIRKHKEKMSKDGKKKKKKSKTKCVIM

KRAS(G12D)/SOS1 = target: T2, KRAS(G12D)/SOS1 (Homo sapiens, UniProt P01116, G12D); assay: KRAS(G12D)/SOS1 Homogeneous Time-Resolved Fluorescence (HTRF) Assay; type: binding; conditions: absence of GTP, 4° C., 3 hr
T2 construct: purchased Cisbio 63ADK000CB16PEG
T2 sequence (P01116 1-188 isoform P01116-2 G12D): as above
Protocol: 3-fold serial dilutions of each test compound were prepared ranging from 20 μM to 1.02 nM. The test compound was mixed and incubated with reaction components, incubated in a sealed plate at 4° C. for 3 hr and fluorescence was measured using a PerkinElmer Envision plate reader. The % inhibition and IC50 values (the concentration at which 50% of the maximal inhibition occurs) were calculated and plotted using GraphPad Prism 7 software.

KRAS(G12D) [2] = target: T1, KRAS(G12D); assay: KRAS Western Blot Protein Degradation Assay, GP2D; type: cell-based; set-up: Cell lines SW1990 and GP2D that express KRAS(G12D); host or cells: GP2D
Text: as §1
as §4, with “Cell lines SW1990 and GP2D that express KRAS(G12D), LU65A that expresses KRAS(G12C), and NCIH727 that expresses KRAS(G12V) were seeded in 6- or 12-well tissue culture plates, and after 1 hr, test compounds were added at various concentrations and incubated at 37° C./5% CO2 for 24 hr. Cells” for “Cells”
Target sequence in this assay (P01116 1-185 isoform P01116-2 G12D limits assumed): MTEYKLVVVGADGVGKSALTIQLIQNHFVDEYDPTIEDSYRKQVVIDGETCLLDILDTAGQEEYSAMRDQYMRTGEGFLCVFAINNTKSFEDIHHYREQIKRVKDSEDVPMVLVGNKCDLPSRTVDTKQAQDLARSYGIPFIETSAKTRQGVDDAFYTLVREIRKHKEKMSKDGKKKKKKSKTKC

Row | Structure (SMILES) | pIC50 (ASPC-1) | pIC50 (GP2D) | pIC50 (A427) | pIC50 (SW1990) | pIC50 (AGS) | Dmax (KRAS(G12D) [1]) [%] | DC50 (KRAS(G12D) [1]) [µM] | pIC50 (KRAS(G12D)/SOS1) | Dmax (KRAS(G12D) [2]; GP2d, read-out: WB data GP2D DMax) [%] | DC50 (KRAS(G12D) [2]; read-out: WB data GP2D DC50, GP2D, KRAS degradation, 24 hr) [µM]
1 | C#Cc1cccc2cc(O)cc(-c3ncc4c(N5CC6CCC(C5)N6)nc(OCC5(CN6CCN(CC7CCN(c8ccc9c(c8)n(C)c(=O)n9C8CCC(=O)NC8=O)CC7)CC6)CC5)nc4c3F)c12 (stereo not shown) [Compound 64] | > 7.00 | > 7.00 | 6.00 to 7.00 | > 7.00 | > 7.00 | > 50 | < 0.1 | > 7.00 | – | –
2 | C#Cc1cccc2cc(O)cc(-c3ncc4c(N5CC6CCC(C5)N6)nc(OCC5(CN6CCN(CC7CCN(c8ccc9c(c8)C(=O)N(C8CCC(=O)N(C)C8=O)C9=O)CC7)CC6)CC5)nc4c3F)c12 (stereo not shown) [Compound 42] | – | – | 6.00 to 7.00 | 6.00 to 7.00 | > 7.00 | 10 to 50 | > 1 | > 7.00 | – | –
3 | C#Cc1cccc2cc(O)cc(-c3ncc4c(N5CC6CCC(C5)N6)nc(OCC5(CN6CCN(C(=O)C7CCN(c8ccc9c(c8)CN(C8CCC(=O)NC8=O)C9=O)CC7)CC6)CC5)nc4c3F)c12 (stereo not shown) [Compound 58] | 6.00 to 7.00 | – | < 6.00 | 6.00 to 7.00 | > 7.00 | – | – | – | – | –
4 | CN1C[C@H](N2CCC(C(=O)NCCOCCOc3ccc4c(c3)C(=O)N(C3CCC(=O)NC3=O)C4=O)CC2)C[C@@H]1COc1nc(N2CC3CCC(C2)N3)c2cnc(-c3cc(O)cc4ccccc34)c(F)c2n1 (stereo partly shown) [Compound 24] | – | – | < 6.00 | – | < 6.00 | – | – | – | – | –
5 | C#Cc1cccc2cc(O)cc(-c3ncc4c(N5CC6CCC(C5)N6C(=O)C(F)(F)F)nc(OCC5(CN6CCN(CC7CCN(c8ccc9c(c8)CN(C8CCC(=O)NC8=O)C9=O)CC7)CC6)CC5)nc4c3F)c12 (stereo not shown) [Compound 57] | 6.00 to 7.00 | – | 6.00 to 7.00 | 6.00 to 7.00 | > 7.00 | 10 to 50 | > 1 | – | – | –
6 | O=C1CCC(N2C(=O)c3ccc(CN4CCN([C@H]5CN6CCCC6(COc6nc(N7CC8CCC(C7)N8)c7cnc(-c8cc(O)cc9ccccc89)c(F)c7n6)C5)CC4)cc3C2=O)C(=O)N1 (stereo partly shown) [Compound 20] | < 6.00 | – | < 6.00 | – | < 6.00 | – | – | – | – | –
7 | C#Cc1cccc2cccc(-c3ncc4c(N5CC6CCC(C5)N6)nc(OC[C@H]5CC[C@@H](CN6CCN(CC7CCN(c8cc9c(cc8F)C(=O)C(N8CCC(=O)NC8=O)C9=O)CC7)CC6)N5C)nc4c3F)c12 (stereo partly shown) [Compound 25] | – | – | < 6.00 | – | < 6.00 | – | – | > 7.00 | – | –
8 | C#Cc1c(F)ccc2cc(O)cc(-c3ncc4c(N5CC6CCC(C5)N6)nc(OCC5(CN6CCN(CC7CCN(c8ccc9c(c8)CN(C8CCC(=O)NC8=O)C9=O)CC7)CC6)CC5)nc4c3F)c12 (stereo not shown) [Compound 43] | > 7.00 | > 7.00 | > 7.00 | > 7.00 | > 7.00 | > 50 | < 0.1 | > 7.00 | – | –
9 | COc1nc(-c2cc(O)cc3ccccc23)c(F)c2nc(OCC3(CN4CCN(CC5CCN(c6ccc7c(c6)C(=O)N(C6CCC(=O)NC6=O)C7=O)CC5)CC4)CC3)nc(C3CC4CCC(C3)N4)c12 (stereo not shown) [Compound 36] | 6.00 to 7.00 | – | 6.00 to 7.00 | 6.00 to 7.00 | 6.00 to 7.00 | – | – | > 7.00 | – | –
10 | CN1C[C@H](N2CCC(C(=O)NCCOc3ccc4c(c3)C(=O)N(C3CCC(=O)NC3=O)C4=O)CC2)C[C@@H]1COc1nc(N2CC3CCC(C2)N3)c2cnc(-c3cc(O)cc4ccccc34)c(F)c2n1 (stereo partly shown) [Compound 23] | – | – | < 6.00 | – | < 6.00 | – | – | > 7.00 | – | –
11 | C#Cc1c(F)ccc2cc(O)cc(-c3nc(OC)c4c(N5CC6CCC(C5)N6C(=O)C(F)(F)F)nc(OCC5(CN6CCC(CN7CCN(c8ccc9c(c8)CN(C8CCC(=O)NC8=O)C9=O)CC7)CC6)CC5)nc4c3F)c12 (stereo not shown) [Compound 63] | 6.00 to 7.00 | > 7.00 | < 6.00 | 6.00 to 7.00 | > 7.00 | 10 to 50 | 0.1 to 1 | > 7.00 | – | –
12 | C#Cc1cccc2cccc(-c3ncc4c(N5CC6CCC(C5)N6)nc(OC[C@H]5C[C@@H](N6CCN(CC7CCC(Nc8ccc9c(c8)C(=O)N(C8CCC(=O)NC8=O)C9=O)CC7)CC6)CN5C)nc4c3F)c12 (stereo partly shown) [Compound 47] | < 6.00 | – | < 6.00 | < 6.00 | < 6.00 | – | – | – | – | –
13 | [2H]C([2H])([2H])Oc1nc(-c2cc(O)cc3ccc(F)c(C#C)c23)c(F)c2nc(OCC3(CN4CCN(CC5CCN(c6ccc7c(c6)CN(C6CCC(=O)NC6=O)C7=O)CC5)CC4)CC3)nc(N3CC4CCC(C3)N4CC(F)(F)F)c12 (stereo not shown) [Compound 97] | – | 6.00 to 7.00 | – | – | 6.00 to 7.00 | – | – | – | 10 to 50 | > 1
